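Interpolation was linear, between the two tested concentrations surrounding the appropriate level; five concentrations were tested over 48 hours in 96-well plates. TGI: total growth inhibition.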
Columns and labels:
Assay in all cases: NCI anticancer screen, dose series, 48 h
DMS 273 small cell lung = system: DMS 273 small cell lung
SF-295 CNS = system: SF-295 CNS
NCI/ADR-RES ovarian = system: NCI/ADR-RES ovarian
HS 578T breast = system: HS 578T breast
OVCAR-3 ovarian = system: OVCAR-3 ovarian
KM12 colon = system: KM12 colon
OVCAR-5 ovarian = system: OVCAR-5 ovarian
DMS 114 small cell lung = system: DMS 114 small cell lung
DU-145 prostate = system: DU-145 prostate
MDA-MB-435 = system: MDA-MB-435

Structure (SMILES)	TGI (DMS 273 small cell lung)	TGI (SF-295 CNS)	TGI (NCI/ADR-RES ovarian)	TGI (HS 578T breast)	TGI (OVCAR-3 ovarian)	TGI (KM12 colon)	TGI (OVCAR-5 ovarian)	TGI (DMS 114 small cell lung)	TGI (DU-145 prostate)	TGI (MDA-MB-435)
CC(=O)O[C@H]1C(=O)[C@@]2(C)C(C(OC(=O)c3ccccc3)[C@]3(O)C[C@H](OC(=O)C(OC(=O)CCCC(=O)NCCCN(C)C)C(NC(=O)c4ccccc4)c4ccccc4)C(C)=C1C3(C)C)C1(OC(C)=O)COC1C[C@@H]2O (some centres undefined)	0.553 µM	1.28 µM	70.7 µM	0.0151 µM	< 0.01 µM	3.19 µM	13.1 µM	< 0.01 µM	0.0666 µM	–
COc1ccc(C/C(=N/O)C(=O)NCCc2cc(Br)c(OCCCN(C)C)c(Br)c2)cc1Br	7.61 µM	34.7 µM	–	–	40.4 µM	34.9 µM	49.2 µM	36.5 µM	–	–
Cc1cc(NCCCCCCCCNc2cc(C)nc3cc(N)ccc23)c2ccc(N)cc2n1	28.9 µM	42 µM	–	–	37.4 µM	37.8 µM	> 100 µM	30.8 µM	–	–
COC(=O)CC(NC(=O)OCc1ccccc1)C(C(C)=O)C(=O)OCc1ccccc1 (centres undefined)	> 31.6 µM	> 100 µM	–	–	> 31.6 µM	> 31.6 µM	> 100 µM	> 31.6 µM	–	–
O=C1C2Nc3ccccc3SC2C(=O)N1c1ccc(Br)cc1 (centres undefined)	> 100 µM	> 100 µM	–	–	99.5 µM	> 100 µM	> 100 µM	46.4 µM	–	–
CC(C)(CN1CCCCC1)C(=O)/C=C/c1ccc(/C=C/C(=O)C(C)(C)CN2CCCCC2)cc1	1.23 µM	1.68 µM	2.36 µM	3.2 µM	1.17 µM	1.35 µM	1.57 µM	1.95 µM	5.05 µM	0.984 µM
O=C(/C=C/c1cc(Cl)cc(Cl)c1O)c1cccc(O)c1	> 100 µM	28.5 µM	–	–	> 100 µM	> 100 µM	28.3 µM	> 100 µM	–	–

Source: PubChem BioAssay (NCI)
